Results as given in ChEMBL document CHEMBL1949526, “Cyclic hydroxyamidines as amide isosteres: discovery of oxadiazolines and oxadiazines as potent and highly efficacious γ-secretase modulators in vivo” (J Med Chem, 2012).

What was measured:
[1] = Oral bioavailability in dog at 10 mg/kg; assay type: ADME, organism-based, Canis lupus familiaris; settings: in vivo
[2] = Permeability from apical to basolateral side of human Caco2 cells; assay type: ADME, cell-based; settings: Caco-2, read-out: permeability
[3] = Plasma concentration in cynomolgus monkey at 30 mg/kg, po after 4 hrs; assay type: ADME, organism-based, Macaca fascicularis; parameters: dose 30 mg/kg, route oral
[4] = Clearance in dog at 3 mg/kg, iv; assay type: ADME, organism-based, Canis lupus familiaris; parameters: dose 3 mg/kg, route intravenous; settings: in vivo
[5] = Clearance in monkey at 3 mg/kg, iv; assay type: ADME, organism-based, Macaca mulatta; parameters: dose 3 mg/kg, route intravenous; settings: rhesus monkey, in vivo
[6] = AUC in rat at 10 mg/kg, po; assay type: ADME, organism-based, Plasma; parameters: dose 10 mg/kg, route oral; settings: plasma
[7] = Volume of distribution at steady state in dog at 3 mg/kg, iv; assay type: ADME, organism-based, Canis lupus familiaris; parameters: dose 3 mg/kg, route intravenous; settings: in vivo, read-out: Vdss
[8] = Half life in monkey at 3 mg/kg, iv; assay type: ADME, organism-based, Macaca mulatta; parameters: dose 3 mg/kg, route intravenous; settings: rhesus monkey, in vivo
[9] = Ratio of drug level in brain to plasma in cynomolgus monkey at 30 mg/kg, po after 4 hrs; assay type: ADME, organism-based, Macaca fascicularis; parameters: dose 30 mg/kg, route oral; settings: read-out: BPR
[10] = Plasma concentration in CD rat at 3 mg/kg, po after 3 hrs; assay type: ADME, organism-based; parameters: dose 3 mg/kg, route oral
[11] = Ratio of drug level in brain to plasma in CD rat at 3 mg/kg, po after 3 hrs; assay type: ADME, organism-based; parameters: dose 3 mg/kg, route oral; settings: read-out: BPR
Cynomolgus monkey [12] = assay: Antialzheimer activity in cynomolgus monkey assessed as reduction in amyloid beta42 level in CSF at 30 mg/kg, po after 4 hrs by alphaLISA analysis; assay type: functional, Macaca fascicularis; parameters: scale not given: the % may be the effect or the level left
[13] = AUC in dog at 10 mg/kg, po; assay type: ADME, organism-based, Canis lupus familiaris, Plasma; parameters: dose 10 mg/kg, route oral; settings: plasma
[14] = Oral bioavailability in rat at 10 mg/kg; assay type: ADME, organism-based; settings: in vivo
Gamma-secretase [15] = assay: Modulation of gamma-secretase-mediated cleavage of human APP Swedish and London mutation expressed in HEK293 cells assessed as inhibition of amyloid beta42 production after 5 hrs by sandwich immunoassay; assay type: cell-based
Rattus norvegicus [16] = assay: Antialzheimer activity in CD rat assessed as reduction in amyloid beta40 level in CSF at 3 mg/kg, po after 3 hrs by alphaLISA analysis; assay type: functional; parameters: scale not given: the % may be the effect or the level left
Rattus norvegicus [17] = organism: Rattus norvegicus; assay: Toxicity in rat assessed as decrease in thymus size at highest tolerable dose; assay type: organism-based; settings: in vivo
Rattus norvegicus [18] = organism: Rattus norvegicus; assay: Toxicity in rat assessed as effect on adipsin expression in jejunum at highest tolerable dose; assay type: organism-based; settings: in vivo
Rattus norvegicus [19] = assay: Antialzheimer activity in CD rat assessed as reduction in amyloid beta40 level in cortex at 3 mg/kg, po after 3 hrs by alphaLISA analysis; assay type: functional; parameters: scale not given: the % may be the effect or the level left
[20] = AUC in monkey at 10 mg/kg, po; assay type: ADME, organism-based, Macaca mulatta; parameters: dose 10 mg/kg, route oral; settings: rhesus monkey, plasma
[21] = Oral bioavailability in monkey at 10 mg/kg; assay type: ADME, organism-based, Macaca mulatta; settings: rhesus monkey, in vivo
Gamma-secretase [22] = assay: Modulation of gamma-secretase-mediated notch signaling in HEK293 cells transfected with human APP Swedish and London mutation and Notch1 with truncated extracellular EGF repeat domain assessed as production of notch intracellular domain by MSD-based sandwich immunoassay; assay type: cell-based
[23] = Half life in dog at 3 mg/kg, iv; assay type: ADME, organism-based, Canis lupus familiaris; parameters: dose 3 mg/kg, route intravenous; settings: in vivo
Rattus norvegicus [24] = assay: Antialzheimer activity in CD rat assessed as reduction in amyloid beta42 level in CSF at 3 mg/kg, po after 3 hrs by alphaLISA analysis; assay type: functional; parameters: scale not given: the % may be the effect or the level left
Gamma-secretase [25] = assay: Modulation of gamma-secretase-mediated cleavage of human APP Swedish and London mutation expressed in HEK293 cells assessed as inhibition of amyloid beta40 production after 5 hrs by sandwich immunoassay; assay type: cell-based
[26] = Cmax in rat at 10 mg/kg, po; assay type: ADME, organism-based; parameters: dose 10 mg/kg, route oral; settings: in vivo
Rattus norvegicus [27] = assay: Antialzheimer activity in CD rat assessed as reduction in total amyloid beta level in CSF at 3 mg/kg, po after 3 hrs by alphaLISA analysis; assay type: functional; parameters: scale not given: the % may be the effect or the level left
Rattus norvegicus [28] = organism: Rattus norvegicus; assay: Toxicity in rat assessed as effect on HES-1 expression in jejunum at highest tolerable dose; assay type: organism-based; settings: in vivo
[29] = Dissociation constant, pKa of the compound; assay type: physicochemical
[30] = Volume of distribution at steady state in rat at 3 mg/kg, iv; assay type: ADME, organism-based; parameters: dose 3 mg/kg, route intravenous; settings: in vivo, read-out: Vdss
[31] = Cmax in dog at 10 mg/kg, po; assay type: ADME, organism-based, Canis lupus familiaris; parameters: dose 10 mg/kg, route oral; settings: in vivo
Rattus norvegicus [32] = organism: Rattus norvegicus; assay: Toxicity in rat assessed as decrease in body weight at highest tolerable dose; assay type: organism-based; settings: in vivo
Rattus norvegicus [33] = assay: Antialzheimer activity in CD rat assessed as reduction in amyloid beta42 level in plasma at 3 mg/kg, po after 3 hrs by alphaLISA analysis; assay type: functional; parameters: scale not given: the % may be the effect or the level left
[34] = Clearance in rat at 3 mg/kg, iv; assay type: ADME, organism-based; parameters: dose 3 mg/kg, route intravenous; settings: in vivo
Canis familiaris = organism: Canis familiaris; assay: Cardiotoxicity in dog assessed as effect on electrocardiographic QTc interval at compound concentration required for pharmacological effect; assay type: toxicity, organism-based, Canis lupus familiaris; settings: in vivo
Rattus norvegicus [35] = assay: Antialzheimer activity in CD rat assessed as reduction in amyloid beta42 level in cortex at 3 mg/kg, po after 3 hrs by alphaLISA analysis; assay type: functional; parameters: scale not given: the % may be the effect or the level left
Gamma-secretase [36] = assay: Modulation of gamma-secretase-mediated cleavage of human APP Swedish and London mutation expressed in HEK293 cells assessed as reduction of total amyloid beta level after 5 hrs by sandwich immunoassay; assay type: cell-based
[37] = molecular target: Voltage-gated inwardly rectifying potassium channel KCNH2 (Homo sapiens, UniProt Q12809); assay: Inhibition of human ERG by cell based voltage clamp assay
[38] = Efflux ratio of permeability from basolateral to apical side over apical to basolateral side in human Caco2 cells; assay type: ADME, cell-based; settings: Caco-2
[39] = Half life in rat at 3 mg/kg, iv; assay type: ADME, organism-based; parameters: dose 3 mg/kg, route intravenous; settings: in vivo
Rattus norvegicus [40] = organism: Rattus norvegicus; assay: Toxicity in rat assessed as production of goblet cell meta/hyperplasia in ileum at highest tolerable dose; assay type: organism-based; settings: in vivo
[41] = Cmax in monkey at 10 mg/kg, po; assay type: ADME, organism-based, Macaca mulatta; parameters: dose 10 mg/kg, route oral; settings: rhesus monkey, in vivo
[42] = Volume of distribution at steady state in monkey at 3 mg/kg, iv; assay type: ADME, organism-based, Macaca mulatta; parameters: dose 3 mg/kg, route intravenous; settings: rhesus monkey, in vivo, read-out: Vdss
Rattus norvegicus [43] = assay: Antialzheimer activity in CD rat assessed as reduction in amyloid beta40 level in plasma at 3 mg/kg, po after 3 hrs by alphaLISA analysis; assay type: functional; parameters: scale not given: the % may be the effect or the level left
Cynomolgus monkey [44] = assay: Antialzheimer activity in cynomolgus monkey assessed as reduction in amyloid beta42 level in cortex at 30 mg/kg, po after 4 hrs by alphaLISA analysis; assay type: functional, Macaca fascicularis; parameters: scale not given: the % may be the effect or the level left
Rattus norvegicus [45] = assay: Antialzheimer activity in CD rat assessed as reduction in total amyloid beta level in plasma at 3 mg/kg, po after 3 hrs by alphaLISA analysis; assay type: functional; parameters: scale not given: the % may be the effect or the level left

Voltage-gated inwardly rectifying potassium channel KCNH2, sequence (Q12809 whole entry): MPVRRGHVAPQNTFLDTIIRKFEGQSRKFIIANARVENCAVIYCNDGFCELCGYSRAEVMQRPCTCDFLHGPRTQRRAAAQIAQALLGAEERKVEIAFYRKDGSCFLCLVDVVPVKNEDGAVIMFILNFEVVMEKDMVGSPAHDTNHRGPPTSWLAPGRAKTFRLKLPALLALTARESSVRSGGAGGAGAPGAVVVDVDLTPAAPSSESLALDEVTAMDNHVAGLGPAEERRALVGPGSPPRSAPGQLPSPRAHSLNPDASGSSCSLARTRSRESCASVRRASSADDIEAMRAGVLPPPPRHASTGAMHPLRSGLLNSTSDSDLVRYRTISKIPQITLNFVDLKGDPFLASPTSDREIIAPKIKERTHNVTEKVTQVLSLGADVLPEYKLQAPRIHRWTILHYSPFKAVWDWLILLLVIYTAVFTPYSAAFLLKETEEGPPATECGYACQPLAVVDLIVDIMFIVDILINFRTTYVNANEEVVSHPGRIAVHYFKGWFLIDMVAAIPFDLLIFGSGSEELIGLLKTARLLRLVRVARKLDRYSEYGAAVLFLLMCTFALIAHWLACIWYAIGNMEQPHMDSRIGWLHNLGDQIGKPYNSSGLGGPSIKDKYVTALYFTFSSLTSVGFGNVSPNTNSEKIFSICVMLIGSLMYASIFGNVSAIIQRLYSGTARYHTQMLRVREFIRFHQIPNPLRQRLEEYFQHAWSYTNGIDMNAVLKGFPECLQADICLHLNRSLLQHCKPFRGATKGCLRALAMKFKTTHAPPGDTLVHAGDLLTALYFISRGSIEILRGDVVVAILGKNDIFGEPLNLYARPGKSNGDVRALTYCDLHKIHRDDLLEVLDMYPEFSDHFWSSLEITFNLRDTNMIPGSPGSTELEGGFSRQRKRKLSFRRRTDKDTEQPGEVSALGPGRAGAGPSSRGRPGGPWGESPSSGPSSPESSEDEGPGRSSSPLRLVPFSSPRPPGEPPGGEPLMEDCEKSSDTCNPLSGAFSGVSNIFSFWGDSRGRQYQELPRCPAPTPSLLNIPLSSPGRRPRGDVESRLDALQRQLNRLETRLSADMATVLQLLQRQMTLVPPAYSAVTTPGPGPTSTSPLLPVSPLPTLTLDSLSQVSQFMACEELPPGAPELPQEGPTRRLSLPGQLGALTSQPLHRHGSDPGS

COc1cc(/C=C2\CCCN3C2=NOC[C@@H]3c2cc(F)c(F)c(F)c2)ccc1-n1cnc(C)c1 showed a bioavailability [1] of 69%, a Papp A→B [2] of 24.6 ×10⁻⁶ cm/s and a concentration at 4 h [3] of 6 µM. It also gave a clearance [4] of 9 mL/min/kg, a clearance [5] of 11 mL/min/kg and an AUC [6] of 265 µM·h. The Vd [7] was 0.6 L/kg, the half-life [8] was 54 min and the Kp at 4 h [9] was 1.4. It also gave a concentration at 3 h [10] of 3000 nM, a Kp at 3 h [11] of 0.49 and an Activity (Cynomolgus monkey [12]) of 70%. For the same compound, the AUC [13] was 27 µM·h, the bioavailability [14] was 100% and the IC50 (Gamma-secretase [15]) was 33 nM. For the same compound, the Activity (Rattus norvegicus [16]) was 74%, the Activity (Rattus norvegicus [17]) was “Non-toxic” and the Activity (Rattus norvegicus [18]) was “Non-toxic”. It also gave an Activity (Rattus norvegicus [19]) of 84%, an AUC [20] of 11 µM·h and a bioavailability [21] of 34%. For the same compound, the IC50 (Gamma-secretase [22]) was greater than 50 µM, the half-life [23] was 48 min and the Activity (Rattus norvegicus [24]) was 65%. It also gave an IC50 (Gamma-secretase [25]) of 123 nM, a Cmax [26] of 19.8 µM and an Activity (Rattus norvegicus [27]) of 88%. For the same compound, the Activity (Rattus norvegicus [28]) was “Non-toxic”, the pKa [29] was 2.7 and the Vd [30] was 0.4 L/kg. For the same compound, the Cmax [31] was 7.9 µM, the Activity (Rattus norvegicus [32]) was “Non-toxic” and the Activity (Rattus norvegicus [33]) was 32%. The clearance [34] was 1.4 mL/min/kg, the Activity (Canis familiaris) was “Non-toxic” and the Activity (Rattus norvegicus [35]) was 63%. For the same compound, the IC50 (Gamma-secretase [36]) was greater than 20 µM, the IC50 [37] was 1000 nM and the efflux ratio [38] was 2. The half-life [39] was 210 min, the Activity (Rattus norvegicus [40]) was “Non-toxic” and the Cmax [41] was 4.9 µM. It also gave a Vd [42] of 0.8 L/kg, an Activity (Rattus norvegicus [43]) of 50% and an Activity (Cynomolgus monkey [44]) of 44%. The Activity (Rattus norvegicus [45]) was 86%.
